Patent US20230330059A1, “3-PHENYL-2H-CHROMENE DERIVATIVE AND PHARMACEUTICAL COMPOSITION FOR PREVENTING OR TREATING ALZHEIMER'S, CONTAINING SAME” (NEUROBIONET, INC., priority 2020, published 2023)
Where two headings read alike, the source gives them in different places.

Key:
N2a cells = test: Neurite outgrowth in N2a cells (Incucyte); type: cell-based, mouse; settings: 5 µM, FIGS. 14a and 14b
Protocol: N2a cells were aliquoted at a density of 1x10^4 cells/well into 24-well plates, treated with daidzein, o-desmethylangolensin, S-equal, SPA1413 and SPA1426 at 5 µM, and evaluated for neurite outgrowth by the real-time cell monitoring system InCucyte. The cells were photographed every 2 hours, and the neurites were counted through Incucyte software.

[1] = system: nitric oxide production in LPS-treated BV2 cells; test: Nitric oxide production (Griess) in LPS-treated BV2 cells; type: cell-based, mouse; settings: LPS (100 ng/ml) 24 hours, Griess reagent, cell type not stated in Table 1, read-out: IC50 (NO production)
Protocol: BV2 cells were seeded at a density of 4 x 10^5 cells/well into 96-well plates, and primary microglial cells isolated from the brain of […] ICR mice were seeded at a density of 4 x 10^5 cells/well into 24-well plates.
The culture media were collected and measured for NO production using a Griess reagent solution (1% sulfanilamide and 0.1% N-1-naphthyl ethylenediamine dihydrochloride in 5% phosphoric acid). Briefly, a total of 50 µL of the supernatant was transferred to new 96-well plates and mixed with the same volume of the Griess reagent solution, followed by measuring OD at 570 nm. In addition, the cell viability was assayed in the same manner as in Experimental Example 2.

| IC50 ([1]; Mus musculus, BV-2) [µM] | IC50 [1] [µM] | SMILES | neurite outgrowth (N2a cells) |
| --- | --- | --- | --- |
| 86.5 |  | O=c1c(-c2ccc(O)cc2)coc2cc(O)ccc12 [Daidzein, reference compound] | significantly increased |
|  | 15.1 | CNC(=N)NCCC[C@H](N)C(=O)O [L-NMMA, reference compound] |  |
|  | 34.7 | CC(C(=O)c1ccc(O)cc1O)c1ccc(O)cc1 (centres unmarked) [O-DMA, o-desmethylangolensin, reference compound] |  |
|  | 11.7 | Oc1ccc([C@H]2COc3cc(O)ccc3C2)cc1 [S-equol, reference compound] |  |
